Paper PMC10779170, “Identification of 2,4-Di-tert-butylphenol as a Novel Agonist for Insect Odorant Receptors” (International Journal of Molecular Sciences, 2023)
One block for each compound: values may come before it.

Columns and labels:
Experiment in all cases: two-electrode voltage clamp, Xenopus oocytes
Format in all cases: cell-based
[1] = molecular target: T1, ORCO + Or35a (Drosophila melanogaster, UniProt Q9VNB5); details: agonist; holding potential -80 mV, ND96 pH 7.4, room temperature
T1 construct: heteromer; cRNAs co-injected in Xenopus laevis oocytes (pGEM-HE); for DTBP, site on Orco; with Odorant receptor 35a
T1 sequence (Q9VNB5 1-486): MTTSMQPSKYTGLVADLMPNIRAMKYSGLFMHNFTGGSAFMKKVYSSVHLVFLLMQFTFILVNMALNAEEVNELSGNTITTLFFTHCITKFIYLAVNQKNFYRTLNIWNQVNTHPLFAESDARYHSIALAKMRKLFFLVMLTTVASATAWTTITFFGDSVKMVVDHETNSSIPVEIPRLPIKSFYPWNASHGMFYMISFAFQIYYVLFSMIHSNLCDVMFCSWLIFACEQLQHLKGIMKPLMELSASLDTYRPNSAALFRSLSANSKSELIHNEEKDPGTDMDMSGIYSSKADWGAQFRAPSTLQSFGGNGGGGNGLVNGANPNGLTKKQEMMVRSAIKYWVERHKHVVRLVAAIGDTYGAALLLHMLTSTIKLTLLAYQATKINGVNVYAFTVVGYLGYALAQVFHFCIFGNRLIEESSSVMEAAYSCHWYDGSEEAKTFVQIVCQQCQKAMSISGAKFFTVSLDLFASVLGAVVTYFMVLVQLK
T1 sequence (Q9V3Q2 1-409 partner): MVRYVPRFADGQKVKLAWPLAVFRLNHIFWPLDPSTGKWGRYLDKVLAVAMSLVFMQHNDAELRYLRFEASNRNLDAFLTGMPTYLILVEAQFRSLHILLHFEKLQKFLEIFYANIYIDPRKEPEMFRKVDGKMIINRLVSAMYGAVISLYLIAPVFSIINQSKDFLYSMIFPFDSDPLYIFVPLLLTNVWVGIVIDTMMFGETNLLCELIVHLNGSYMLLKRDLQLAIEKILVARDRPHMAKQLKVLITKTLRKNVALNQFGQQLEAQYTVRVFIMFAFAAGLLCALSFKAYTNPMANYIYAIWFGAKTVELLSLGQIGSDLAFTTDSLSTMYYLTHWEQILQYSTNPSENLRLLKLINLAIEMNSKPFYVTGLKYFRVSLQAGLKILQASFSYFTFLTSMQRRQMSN
Source text: two-electrode voltage clamp, Xenopus oocytes on ORCO + Or35a

[2] = molecular target: T2, ORCO + Or24a (Drosophila melanogaster, UniProt Q9VNB5); details: agonist; holding potential -80 mV, ND96 pH 7.4, room temperature
T2 construct: heteromer; cRNAs co-injected in Xenopus laevis oocytes (pGEM-HE); for DTBP, site on Orco; with Odorant receptor 24a
T2 sequence (Q9VNB5 1-486): T1 sequence (Q9VNB5 1-486)
T2 sequence (P81913 1-398 partner): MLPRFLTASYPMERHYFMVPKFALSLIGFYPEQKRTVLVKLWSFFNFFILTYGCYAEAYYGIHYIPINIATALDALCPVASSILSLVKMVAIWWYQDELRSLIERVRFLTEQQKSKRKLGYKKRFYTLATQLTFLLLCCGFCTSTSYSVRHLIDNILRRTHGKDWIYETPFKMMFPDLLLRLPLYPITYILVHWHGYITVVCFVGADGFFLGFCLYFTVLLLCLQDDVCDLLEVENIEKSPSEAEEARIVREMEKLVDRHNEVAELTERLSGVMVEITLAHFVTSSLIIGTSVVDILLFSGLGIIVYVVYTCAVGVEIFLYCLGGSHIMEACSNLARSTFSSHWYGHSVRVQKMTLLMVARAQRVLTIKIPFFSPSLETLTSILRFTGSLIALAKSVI
Source text: two-electrode voltage clamp, Xenopus oocytes on ORCO + Or24a

[3] = molecular target: T3, ORCO + Or1a (Drosophila melanogaster, UniProt Q9VNB5); details: agonist; holding potential -80 mV, ND96 pH 7.4, room temperature; unit inferred, μM from text for the ORCO row
T3 construct: heteromer; cRNAs co-injected in Xenopus laevis oocytes (pGEM-HE); for DTBP, site on Orco; with Odorant receptor 1a
T3 sequence (Q9VNB5 1-486): T1 sequence (Q9VNB5 1-486)
T3 sequence (Q9W5G6 1-392 partner): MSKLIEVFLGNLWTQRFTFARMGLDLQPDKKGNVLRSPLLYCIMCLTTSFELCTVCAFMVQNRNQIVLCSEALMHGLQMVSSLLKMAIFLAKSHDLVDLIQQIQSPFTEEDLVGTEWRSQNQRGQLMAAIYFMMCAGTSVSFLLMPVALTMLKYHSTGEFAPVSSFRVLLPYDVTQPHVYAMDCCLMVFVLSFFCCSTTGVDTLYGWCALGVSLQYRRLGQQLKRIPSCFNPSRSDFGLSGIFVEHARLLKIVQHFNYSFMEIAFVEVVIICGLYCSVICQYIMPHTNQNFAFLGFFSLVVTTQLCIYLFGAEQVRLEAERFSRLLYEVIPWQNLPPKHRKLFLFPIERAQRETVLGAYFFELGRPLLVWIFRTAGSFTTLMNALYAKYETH
Source text: two-electrode voltage clamp, Xenopus oocytes on ORCO + Or1a

[4] = molecular target: T4, Orco homomeric receptor (Drosophila melanogaster, UniProt Q9VNB5); details: agonist; holding potential -80 mV, ND96 pH 7.4, room temperature
T4 construct: synthesised cDNA in pGEM-HE, cRNA injected in Xenopus laevis oocytes; homotetramer
T4 sequence (Q9VNB5 1-486): T1 sequence (Q9VNB5 1-486)

[5] = molecular target: T5, Orco + Or1a (Drosophila melanogaster, UniProt Q9W5G6); details: agonist; 0.3 μM in Figure 2B; holding potential -80 mV, ND96 pH 7.4
T5 construct: same complex as P2, site on OrX; with Odorant receptor coreceptor
T5 sequence (Q9W5G6 1-392): T3 sequence (Q9W5G6 1-392 partner)
T5 sequence (Q9VNB5 1-486 partner): T1 sequence (Q9VNB5 1-486)

[6] = molecular target: T6, Orco + Or35a (Drosophila melanogaster, UniProt Q9V3Q2); details: agonist; 10 μM in Figure 2D; holding potential -80 mV, ND96 pH 7.4
T6 construct: same complex as P4, site on OrX; with Odorant receptor coreceptor
T6 sequence (Q9V3Q2 1-409): T1 sequence (Q9V3Q2 1-409 partner)
T6 sequence (Q9VNB5 1-486 partner): T1 sequence (Q9VNB5 1-486)

[7] = molecular target: T7, Orco + Or24a (Drosophila melanogaster, UniProt P81913); details: agonist; 0.3 μM in Figure 2C; holding potential -80 mV, ND96 pH 7.4
T7 construct: same complex as P3, site on OrX; with Odorant receptor coreceptor
T7 sequence (P81913 1-398): T2 sequence (P81913 1-398 partner)
T7 sequence (Q9VNB5 1-486 partner): T1 sequence (Q9VNB5 1-486)

EC50 [1]: 38.1 ± 3.8 µM
EC50 [2]: 51 ± 8.2 µM
EC50 [3]: 104 ± 27.7 µM
EC50 [4]: 13.4 ± 3 µM
Compound: CC(C)(C)c1ccc(O)c(C(C)(C)C)c1 [2,4-di-tert-butylphenol]

Compound: CCCCCC(C)=O [2-heptanone]
normalised dose-response curve [5]: illustrate the normalized activation of DTBP and other odorants for each heteromeric receptor

Compound: CCCCC(C)O (stereo not shown) [2-hexanol]
normalised dose-response curve [6]: illustrate the normalized activation of DTBP and other odorants for each heteromeric receptor

Compound: CCCCCCCCO [octanol]
normalised dose-response curve [7]: illustrate the normalized activation of DTBP and other odorants for each heteromeric receptor
